Several values for one entry are separate records, joined by “and”; a condition that tells them apart may be missing. Equal values may be shown once.

Usually IC50 stands for the concentration at which inhibition is half-maximal. Read a high IC50 as weaker potency in that assay. By fraction unbound is commonly meant the share of the substance not bound to proteins or other matrix.

In one data set the test system is PER117 cells. Put plainly: CTG viability, PER117. In kind it is cell-based, human. To be noted: for IC50: PER117 cells, replicate values. How it is done: After establishing the potency and selectivity of our lead CK1α degraders, we investigated their effect on a panel of AML and ALL cell lines (Fig. 3a).
The primary screen was performed in 384-well format using the CellTiter Glo (CTG) luminescent cell viability assay (Promega) as previously described. 3630 compounds from the St. Jude proprietary molecular glue library were screened against 9 human cancer cell lines (HD-MB03, MB004, MB002, MHH-CALL4, MOLM-13, TF-1, HEL, OCI-AML3, AML193). Each cell line was cultured in the complete medium recommended by the vendor and seeded in Corning 8804 BC white 384-well assay plates at densities of 1000, 1000, 1500, 7500, 1250, 156, 625, 1250, 1250 cells per well for HD-MB03, MB004, MB002, MHH-CALL4, MOLM-13, TF-1, HEL, OCI-AML, AML193, respectively. After overnight incubation at 37 °C in a humidified 5% CO2 incubator, cells were treated with compounds in dose–response format using a Pintool on a Biomek FX^P Laboratory Automation Workstation (Beckman Coulter). After 72 h of incubation, cell proliferation was assessed using a CellTiter-Glo (CTG) luminescent cell viability assay (Promega) according to the manufacturer’s instructions. Luminescence signal was measured using an EnVision plate reader (PerkinElmer).
HD-MB03 cell line was obtained from Drs. Milde, Witt and Deubzer[52]. HD-MB03 and MB004 cells were grown in a neurobasal medium supplemented with glutamine, streptomycin, penicillin, B27, EGF, bFGF, and heparin as previously described. MB002 and MB004 cells were obtained from Dr Yoon-Jae Cho[54]. MB002 cells were cultured in 80% neurobasal medium supplemented with glutamine, streptomycin, penicillin, B27, and 20% conditioned media from previous passages; EGF, bFGF, and heparin were also added to the medium. MHH-CALL4, NALM-16, MHH-CALL-2 cells were obtained from the German Collection of Microorganisms and Cell Cultures GmbH (DSMZ, Germany). PER-117 cells were obtained from Telethon Kids Institute (Perth, Australia). The cells were cultured in RPMI1640 medium supplemented with 10% FBS (Hyclone), Penicillin/Streptomycin (100 units/mL), and Glutamine (100 µM) except for MHH-CALL-2 cells where 20% FBS were used. MOLM-13 cells were obtained from DSMZ (ACC 554) and cultured in RPMI-1640 media (Gibco) supplemented with 20% FBS (R&D Systems) and 100 U/ml penicillin-streptomycin (Gibco). HNT-34 cells were purchased from DSMZ (ACC 600) and cultured in RPMI-1640 media supplemented with 20% FBS and 100 U/ml penicillin-streptomycin. Kasumi-3 cells were purchased from ATCC (CRL-2725) and cultured in RPMI-1640 media supplemented with 20% FBS and 100 U/ml penicillin-streptomycin. UCSD-AML1 cells were purchased from DSMZ (ACC 691) and cultured in RPMI-1640 media supplemented with 20% FBS, 100 U/ml penicillin–streptomycin, and 10 ng/ml human GM-CSF (PeproTech). […] OCI-AML3 cells were purchased from DSMZ (ACC 690) and cultured in Alpha-MEM media (Invitrogen) supplemented with 20% FBS and 100 U/ml penicillin–streptomycin. HEL cells were obtained from Dr. Charles Mullighan and cultured in RPMI-1640 media supplemented with 10% FBS and 100 U/ml penicillin-streptomycin. AML193 cells were purchased from DSMZ (ACC 549) and cultured in IMDM supplemented with 5% FBS, 100 U/ml penicillin–streptomycin, Insulin–Transferrin–Selenium (ITS-G, Gibco), and 5 ng/ml human GM-CSF. Cell identity was confirmed by STR profiling using PowerPlex® Fusion System (Promega).

Data set [1] is described as follows: Plasma protein binding assay (RED), mouse. In kind it is in vitro ADME. How it is done:
page 33: the need for further incubation. Following quenching, all plates were thoroughly mixed at 600 rpm for 10 minutes and centrifuged at 4000 rpm for 20 minutes. Supernatants were transferred to […] MS/MS analysis. Plasma stability was evaluated by determining the half-life through a least-squares fit of multiple time points based on first-order kinetics. Plasma protein binding assay: Test compound stock solutions were prepared at a concentration of 10 mM in DMSO. A Single-Use RED (Rapid Equilibrium Dialysis) device was acquired from Thermo Scientific (Cat. No: 99006, Rockford, IL). The sample preparation for plasma protein binding followed a modified version of Waters' method6. After thawing, plasma was centrifuged at 1000 rpm for 10 minutes to eliminate any particulates. Each compound was then prepared at a concentration of 10 µM in either human or mouse plasma. In the plasma protein binding assessment, 300 µL of spiked plasma solutions were introduced into the sample chamber (indicated by the red ring), while 550 µL of DPBS was added to the adjacent chamber. The plate was sealed and incubated at 37°C on an orbital shaker (100 rpm) for 4 hours. Post -incubation, 50 µL aliquots were withdrawn from each side of the insert and dispensed into a 96 -well storage plate. To create analytically identical sample matrices (matrix matching), an equivalent volume of blank plasma or DPBS was added to the necessary wells, followed by quenching w ith 3-fold (v:v) cold acetonitrile containing warfarin as the internal standard. Subsequently, the sealed plates were well -mixed at 600 rpm for 10 minutes and then centrifuged at 4000 rpm for 20 minutes. Supernatants were transferred to analytical […] Test compound concentrations were quantified in both the buffer and plasma chambers by determining peak areas relative to the internal standard. The percentage of the test compound bound to plasma was calculated using the following equation (4): %Free = (Concentration buffer chamber / concentration plasma chamber) x 100% and equation (5) %Bound = 100% - %Free.

The mark [2] stands for this setting: mouse plasma, single replicates.

As for `O=C1CCC(N2Cc3cc(Nc4noc5ccccc45)ccc3C2=O)C(=O)N1` (stereo not drawn) [SJ3149], the “Activity against PER117 cells” value in the data set with PER117 cells (CTG) is “sub-nanomolar activity”. Besides, the IC50 in the data set on PER117 cells (Homo sapiens) is 0.8 nM; with PER117 cells it was 1.1 nM. The compound also showed a fraction unbound at 4 h, 10 µM in data set [1] (mouse, plasma) of 0.038.
Turning to `O=C1CCC(N2Cc3cc(Nc4noc5ccccc45)ccc3C2=O)C(=O)N1` (stereo not drawn) [SJ001043149-1], in data set [1] (mouse plasma, average of 3 replicates), the “AVG %Bound” value is 96.2%. In data set [1] (setting [2]), the “%Bound” value was 96.641% and 95.489% and 96.3948%; the “%Free” value was 3.359% and 4.511% and 3.605%.
As for `Cc1cccc(C(=O)Nc2ccc3c(c2)CN(C2CCC(=O)NC2=O)C3=O)c1` (stereo not drawn) [SJ0040], the IC50 in the data set with PER117 cells (Homo sapiens) is 5 nM; in the data set with PER117 cells, 4.7 nM and 5.3 nM.

Source of the values: article PMC10791743, “Selective CK1α degraders exert antiproliferative activity against a broad range of human cancer cell lines” (Nature Communications, 2024).
